≈ marks a conversion by molar mass, not a printed value. Entries after “also recorded” stand apart in the source; their conditions may differ. Read-outs that look alike come from different tables or passages of the source.
Legend:
[1] = test system: Propionibacterium acnes, Bacteroides fragilis, and Clostridium difficile; assay: Spectrum of activity MIC (NCCLS), anaerobes; type: cell-based
Protocol: Compound 109 was tested against a representative panel of commonly encountered clinical microorganisms comprising opportunistic pathogens, target pathogens and normal human flora. The spectrum of activity of compound 109 was evaluated by performing antimicrobial susceptibility testing against a collection of aerobic and anaerobic bacteria, fungi, and mycobacteria. MICs for all organisms were established using the appropriate NCCLS (National Committee for Clinical Laboratory Standards) recommended standard methods and quality control strains.

human CYP2C19 = human CYP2C19 (Homo sapiens, UniProt P33261); assay: Metabolism by CYP2C19; type: in vitro ADME
human CYP2C19, sequence (P33261 whole entry): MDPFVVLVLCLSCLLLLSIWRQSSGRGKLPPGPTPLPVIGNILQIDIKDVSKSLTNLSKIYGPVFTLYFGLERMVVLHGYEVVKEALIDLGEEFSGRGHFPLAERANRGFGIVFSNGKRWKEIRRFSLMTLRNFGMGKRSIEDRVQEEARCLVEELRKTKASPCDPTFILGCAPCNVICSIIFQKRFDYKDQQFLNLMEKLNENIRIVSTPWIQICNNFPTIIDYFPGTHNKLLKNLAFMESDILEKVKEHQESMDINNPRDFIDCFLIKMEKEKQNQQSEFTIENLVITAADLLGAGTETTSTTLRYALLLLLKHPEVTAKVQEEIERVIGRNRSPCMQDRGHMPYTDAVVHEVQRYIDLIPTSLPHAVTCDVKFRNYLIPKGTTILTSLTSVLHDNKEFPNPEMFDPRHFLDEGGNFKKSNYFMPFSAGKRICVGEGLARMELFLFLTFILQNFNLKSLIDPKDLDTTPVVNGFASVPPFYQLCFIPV
Excerpt: Two of the groups contained oxidized metabolites. […] Based on the finding that SQ109 was metabolized rapidly by CYP, it is possible that its antimycobacterial activity may come from one of its metabolites. It is conceivable that SQ109 is a prodrug and requires activation by mycobacterial CYP. We speculate that when SQ109 is used in combination with rifampicin, the latter induces certain CYP activity within the Mycobacteria. Elevated CYP activity activates the SQ109 prodrug more efficiently, resulting in an apparent synergistic activity of the two drugs.

[2] = PK, tissue distribution, excretion and metabolism of compound 109 in mice; type: in vivo; parameters: Amount cumulatively excreted, Feces / Amount cumulatively excreted, Urine: unit not given here; settings: for half-life: read-out: T1/2 el (converted)
Protocol: Initially, analytical methods for determination of the compounds had been developed that allowed to carry out all the PK experiments, sec FIG. 29. Here is a brief description of the experiment: (1) plasma spiked with tested compounds and 10 uL of Terfenadine or plasma samples (200 uL) added; (2) ACN (2 mL) added to precipitate protein and spin at 2,500 rpm; (3) evaporate supernatant to dryness; (4) add 200 uL of the diluting solvent: methanol (with 0.1% of trifluoroacetic acid): ammonium acetate (80/20); (5) vortex, spin, and use supernatant; (6) run LC/MS/MS on Sciex API 3000.
Conjugated metabolites are products of the typical metabolic pathway N-glucoronidation formed by reaction with glucuronic acid (D. A. Williams and T. L. Lemke in Foye's Principals of Medicinal Chemistry, 5th Ed., p.202).

M. tuberculosis H37Rv [3] = assay: MIC by BACTEC 460; type: cell-based, Mycobacterium tuberculosis; settings: Mycobacterium tuberculosis, H37RV; read-out: MIC (BACTEC)
M. bovis BCG = assay: microbe, parasite or virus in culture; type: cell-based; settings: Mycobacterium tuberculosis variant bovis BCG
dopamine receptor D1 = molecular target: T1, dopamine receptor D1 (Homo sapiens, UniProt P21728); assay: CEREP receptor binding, D1; settings: tested at 10 μM; read-out: inhibition of control specific binding
T1 construct: CEREP (contract testing)
T1 sequence (P21728 whole entry): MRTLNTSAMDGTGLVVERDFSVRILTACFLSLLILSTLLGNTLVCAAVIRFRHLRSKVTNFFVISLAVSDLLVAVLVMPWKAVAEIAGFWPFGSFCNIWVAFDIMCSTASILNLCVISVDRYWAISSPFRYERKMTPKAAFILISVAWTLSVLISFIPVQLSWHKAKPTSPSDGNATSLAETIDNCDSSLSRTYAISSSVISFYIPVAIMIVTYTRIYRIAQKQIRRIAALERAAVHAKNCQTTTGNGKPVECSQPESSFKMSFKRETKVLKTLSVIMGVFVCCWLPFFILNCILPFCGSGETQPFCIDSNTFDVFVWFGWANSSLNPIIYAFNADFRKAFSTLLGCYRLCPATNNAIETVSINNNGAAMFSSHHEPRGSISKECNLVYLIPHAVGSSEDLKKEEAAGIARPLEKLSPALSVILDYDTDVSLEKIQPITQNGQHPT
Excerpt: (§1) In vitro testing for safety pharmacology and early ADMET (Absorption, Distribution, Metabolism, Excretion, Toxicity) studies of compound 109 were contracted out to CEREP (15318 NE 95th Street, Redmond, Wash., 98052, USA www.cerep.com) under a service agreement and included evaluation of inhibitory binding to a panel of 27 standard receptors and three transporters (See FIG. 60 (Table 31) and FIG. 61 (Table 32)) which included: adenosine receptors (A1 and A2A), adrenergic receptors (alpha 1, alpha 2, beta 1), angiotensin II receptor (AT1), benzodiazapene receptor (BZD), bradykinin receptor (B2), cholecystokinin receptor (CCK1), dopamine receptors (D1, D2S), endothelin receptor (ETA), GABA receptor (GABA), glutamate receptor (NMDA), histamine receptor (H1 central), melanocortin receptor (MC4), muscarinic receptor (M, non-selective), neurokinin receptor (NK1), neuropeptide Y receptor (Y), nicotinic receptor (neuronal, alpha-BGTX-insensitive), opiate receptor (non-selective opiate), orphanin receptor (ORL1), phencyclidine receptor (PCP), serotonin receptor (5-HT), sigma receptor (sigma non-selective), steroid receptor (glucocorticoid receptor, GR), and NE, DA, and 5-HT transporters.
(§2) The specific ligand binding to the receptors is defined as the difference between the total binding and the nonspecific binding determined in the presence of an excess of unlabelled ligand.

M. tuberculosis H37Rv [4] = assay: Two-drug combination growth inhibition, BACTEC 460, x/y quotient; type: cell-based; settings: for interaction of SQ109 with isoniazid: both drugs at 0.5 MIC
[5] = test system: muscarinic receptor (M, non-selective); assay: CEREP receptor binding, muscarinic M; settings: tested at 10 μM
Excerpt: as §1, §2

[6] = sub-MIC concentrations, listed as SQ109

CC(C)=CCC/C(C)=C/CNCCNC1C2CC3CC(C2)CC1C3 (centres unmarked) [Compound 109, N-Geranyl-N′-(2-adamanthyl)ethane-1,2-diamine]
MIC [1]: 16 to 64 µg/mL (≈ 48.4 to 194 µM)
metabolism by CYP (human CYP2C19): metabolized
Amount cumulatively excreted, Feces ([2]; 3 mg/kg i.v., 0-4 h): <0.01
Amount cumulatively excreted, Urine ([2]; 3 mg/kg i.v., 0-4 h, unit not given): <0.01
Amount cumulatively excreted, Feces ([2]; 3 mg/kg i.v., 4-8 h): 0.01
Amount cumulatively excreted, Urine ([2]; 3 mg/kg i.v., 4-8 h): <0.01
Amount cumulatively excreted, Feces ([2]; 3 mg/kg i.v., 8-24 h): 0.04
Amount cumulatively excreted, Urine ([2]; 3 mg/kg i.v., 8-24 h): 0.03
Amount cumulatively excreted, Feces ([2]; 3 mg/kg i.v., 24-32 h): <0.01
Amount cumulatively excreted, Urine ([2]; 3 mg/kg i.v., 24-32 h): 0.01
Amount cumulatively excreted, Feces ([2]; 3 mg/kg i.v., Total 0-32 h): 0.06
Amount cumulatively excreted, Urine ([2]; 3 mg/kg i.v., Total 0-32 h): 0.04
Amount cumulatively excreted, Feces ([2]; 25 mg/kg p.o., 0-4 h): 0.48
Amount cumulatively excreted, Feces ([2]; 25 mg/kg p.o., 4-8 h): 0.31
Amount cumulatively excreted, Feces ([2]; 25 mg/kg p.o., 8-24 h): 1.12
Amount cumulatively excreted, Feces ([2]; 25 mg/kg p.o., 24-32 h): 0.08
Amount cumulatively excreted, Feces ([2]; 25 mg/kg p.o., Total 0-32 h): 2.0
tissue distribution ([2]; i.v. 3 mg/kg, p.o. 25 mg/kg): primarily distributes into the lungs and spleen
plasma level relative to MBC ([2]; iv or p.o.): reaches and exceeds its Minimum Bactericidal Concentration
metabolites (breakdown products) in urine ([2]; mouse urine): did not provide evidence of breakdown products
conjugated (N-glucoronidation) metabolites in urine ([2]; mouse urine, first 24 hr): No glucoronidation metabolites; also recorded: no evidence for the formation of conjugated metabolites
total amount after excretion (urine and feces) ([2]; mouse, in vivo): ≤ 3 % of the delivered dose
total clearance ([2]; mouse, in vivo): less than hepatic blood flow
AUC ([2]; mouse, in vivo, iv, 3 mg/kg): 792 ng·h/mL
Cmax ([2]; mouse, in vivo, iv, 3 mg/kg): 1040 ng/mL
Tmax ([2]; mouse, in vivo, iv, 3 mg/kg): 0 h
clearance ([2]; mouse, in vivo, iv, 3 mg/kg): 63.1 mL/min/kg
half-life ([2]; mouse, in vivo, iv, 3 mg/kg): 3.5 h
Vd ([2]; mouse, in vivo, iv, 3 mg/kg, read-out: Vdss): 11.8 L/kg
AUC ([2]; mouse, in vivo, po, 25 mg/kg): 254 ng·h/mL
Cmax ([2]; mouse, in vivo, po, 25 mg/kg): 135 ng/mL
Tmax ([2]; mouse, in vivo, po, 25 mg/kg): 0.31 h
bioavailability ([2]; mouse, in vivo, po, 25 mg/kg): 3.8%
half-life ([2]; mouse, in vivo, po, 25 mg/kg): 5.2 h
MIC (M. tuberculosis H37Rv [3]): 0.32 µg/mL (≈ 0.968 µM)
MIC (M. bovis BCG): 0.5 µg/mL (≈ 1.51 µM)
inhibition at 10 µM (dopamine receptor D1): 51%
growth inhibition of inoculum (M. tuberculosis H37Rv [4]; 0.5 MIC SQ109 in combination with 0.1 MIC RIF): greater than 99%
Synergy quotient (x/y) (M. tuberculosis H37Rv [4]; SQ109 1/10 MIC + INH ½ MIC): 1
Synergy quotient (x/y) (M. tuberculosis H37Rv [4]; SQ109 1/10 MIC + MOX ½ MIC): 1
Synergy quotient (x/y) (M. tuberculosis H37Rv [4]; SQ109 1/10 MIC + MOX ⅕ MIC): 1
Synergy quotient (x/y) (M. tuberculosis H37Rv [4]; SQ109 1/10 MIC + RIF 1/10 MIC): 1
Synergy quotient (x/y) (M. tuberculosis H37Rv [4]; SQ109 1/10 MIC + RIF 1/20 MIC): 1
Synergy quotient (x/y) (M. tuberculosis H37Rv [4]; SQ109 1/10 MIC + RIF ¼ MIC): 1
Synergy quotient (x/y) (M. tuberculosis H37Rv [4]; SQ109 1/10 MIC + RIF ½ MIC): 0.16
Synergy quotient (x/y) (M. tuberculosis H37Rv [4]; SQ109 1/10 MIC + SM ½ MIC): 0.98
Synergy quotient (x/y) (M. tuberculosis H37Rv [4]; SQ109 1/20 MIC + INH ½ MIC): 1
Synergy quotient (x/y) (M. tuberculosis H37Rv [4]; SQ109 1/20 MIC + MOX ½ MIC): 1
Synergy quotient (x/y) (M. tuberculosis H37Rv [4]; SQ109 1/20 MIC + MOX ⅕ MIC): 1
Synergy quotient (x/y) (M. tuberculosis H37Rv [4]; SQ109 1/20 MIC + RIF 1/10 MIC): 1
Synergy quotient (x/y) (M. tuberculosis H37Rv [4]; SQ109 1/20 MIC + RIF 1/20 MIC): 1
Synergy quotient (x/y) (M. tuberculosis H37Rv [4]; SQ109 1/20 MIC + RIF ¼ MIC): 1
Synergy quotient (x/y) (M. tuberculosis H37Rv [4]; SQ109 1/20 MIC + RIF ½ MIC): 0.32
Synergy quotient (x/y) (M. tuberculosis H37Rv [4]; SQ109 1/20 MIC + SM ½ MIC): 1
Synergy quotient (x/y) (M. tuberculosis H37Rv [4]; SQ109 ½ MIC + INH ½ MIC): 0.45
Synergy quotient (x/y) (M. tuberculosis H37Rv [4]; SQ109 ½ MIC + MOX ½ MIC): 0.45
Synergy quotient (x/y) (M. tuberculosis H37Rv [4]; SQ109 ½ MIC + MOX ⅕ MIC): 0.51
Synergy quotient (x/y) (M. tuberculosis H37Rv [4]; SQ109 ½ MIC + RIF 1/10 MIC): 0.29
Synergy quotient (x/y) (M. tuberculosis H37Rv [4]; SQ109 ½ MIC + RIF 1/20 MIC): 0.61
Synergy quotient (x/y) (M. tuberculosis H37Rv [4]; SQ109 ½ MIC + RIF ¼ MIC): 0.23
Synergy quotient (x/y) (M. tuberculosis H37Rv [4]; SQ109 ½ MIC + RIF ½ MIC): 0.12
Synergy quotient (x/y) (M. tuberculosis H37Rv [4]; SQ109 ½ MIC + SM ½ MIC): 0.57
Synergy quotient (x/y) (M. tuberculosis H37Rv [4]; SQ109 ⅕ MIC + INH ½ MIC): 0.83
Synergy quotient (x/y) (M. tuberculosis H37Rv [4]; SQ109 ⅕ MIC + MOX ½ MIC): 0.96
Synergy quotient (x/y) (M. tuberculosis H37Rv [4]; SQ109 ⅕ MIC + MOX ⅕ MIC): 1
Synergy quotient (x/y) (M. tuberculosis H37Rv [4]; SQ109 ⅕ MIC + RIF 1/10 MIC): 1
Synergy quotient (x/y) (M. tuberculosis H37Rv [4]; SQ109 ⅕ MIC + RIF 1/20 MIC): 1
Synergy quotient (x/y) (M. tuberculosis H37Rv [4]; SQ109 ⅕ MIC + RIF ½ MIC): 0.4
Synergy quotient (x/y) (M. tuberculosis H37Rv [4]; SQ109 ⅕ MIC + SM ½ MIC): 0.74
interaction of SQ109 with isoniazid (M. tuberculosis H37Rv [4]; listed as SQ 109): strong synergistic activity
interaction of SQ109 with isoniazid (M. tuberculosis H37Rv [4]; listed as SQ109): synergy
interaction of SQ109 with pyrazinamide (M. tuberculosis H37Rv [4]; sub-MIC concentrations, PZA Test Medium, listed as SQ109): neither synergy nor additive effects; also recorded: did not show any positive interaction
interaction of SQ109 with rifampicin (M. tuberculosis H37Rv [4]; sub-MIC concentrations, listed as SQ 109): strong synergistic activity
interaction of SQ109 with ethambutol (M. tuberculosis H37Rv [4]; [6]): neither synergy nor additive effects; also recorded: did not show any positive interaction; also recorded: no interaction
interaction of SQ109 with rifampicin (M. tuberculosis H37Rv [4]; [6]): marked synergy
interaction of SQ109 with streptomycin (M. tuberculosis H37Rv [4]; [6]): additive effect; also recorded: only additive interaction
inhibition of control specific binding [5]: 96%
